Data reported in ChEMBL document CHEMBL1201862, “PubChem BioAssay data set” (2004).
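Method: 48-hour compound exposure of cells in 96-well plates, five concentrations, linear interpolation of endpoints. The concentration for 50% growth inhibition is given as GI50.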 Calls of active or inactive are those of the source. Rule as the data show it: active = GI50 up to about 1.1 µM and inactive = higher.

Experiments:
Assay in all cases: growth of human tumour cells (NCI), 48 h
[1] = tested on: OVCAR-3
[2] = tested on: OVCAR-8
[3] = tested on: T47D
[4] = tested on: MDA-MB-231
[5] = tested on: 786-0
[6] = tested on: CAKI-1
[7] = tested on: OVCAR-5
[8] = tested on: A549
[9] = tested on: A498
[10] = tested on: NCI/ADR-RES
[11] = tested on: NCI-H522
[12] = tested on: HOP-92
[13] = tested on: U-251
[14] = tested on: UACC-257
[15] = tested on: KM12
[16] = tested on: SF-295
[17] = tested on: UO-31
[18] = tested on: EKVX
[19] = tested on: LOX IMVI
[20] = tested on: K562

Row | Structure (SMILES) | GI50 [1] | GI50 [2] | GI50 [3] | GI50 [4] | GI50 [5] | GI50 [6] | GI50 [7] | GI50 [8] | GI50 [9] | GI50 [10] | GI50 [11] | GI50 [12] | GI50 [13] | GI50 [14] | GI50 [15] | GI50 [16] | GI50 [17] | GI50 [18] | GI50 [19] | GI50 [20]
1 | C=CCOc1ccc(C(=N/NC(=O)c2ccccc2)/N=N/c2ccccc2)cc1OC | 86.9 µM (inactive) | 65.3 µM (inactive) | 24 µM (inactive) | 70.6 µM (inactive) | > 100 µM (inactive) | > 100 µM (inactive) | > 100 µM (inactive) | > 100 µM (inactive) | > 100 µM (inactive) | 84.3 µM (inactive) | 93.5 µM (inactive) | 30.1 µM (inactive) | 79.4 µM (inactive) | > 100 µM (inactive) | 54.2 µM (inactive) | > 100 µM (inactive) | 92.9 µM (inactive) | > 100 µM (inactive) | 42.1 µM (inactive) | 
2 | COc1cc(C(=O)/C=C/c2ccc(OCCSCCCCCCCCCCSCCOc3ccc(/C=C/C(=O)c4cc(OC)c(OC)c(OC)c4)cc3)cc2)cc(OC)c1OC | > 100 µM (inactive) | > 100 µM (inactive) | > 100 µM (inactive) | > 100 µM (inactive) | > 100 µM (inactive) | > 100 µM (inactive) | > 100 µM (inactive) | > 100 µM (inactive) | > 100 µM (inactive) | > 100 µM (inactive) | > 100 µM (inactive) | > 100 µM (inactive) | > 100 µM (inactive) |  | > 100 µM (inactive) | > 100 µM (inactive) | > 100 µM (inactive) | > 100 µM (inactive) | > 100 µM (inactive) | > 100 µM (inactive)
3 | Cc1cc(NC(=O)NC(=O)c2ccccc2N(C)C)ccc1Oc1ncc(Br)cn1 | 0.29 µM (active) | 1.1 µM (active) | 1.61 µM (inactive) | 1.45 µM (inactive) | 0.425 µM (active) |  | 8.11 µM (inactive) | 0.705 µM (active) | 0.29 µM (active) | 0.361 µM (active) | 0.21 µM (active) | 1.3 µM (inactive) | 0.497 µM (active) | 0.41 µM (active) | 0.359 µM (active) | 0.224 µM (active) | 2.04 µM (inactive) | 1.96 µM (inactive) | 0.369 µM (active) | 0.119 µM (active)
4 | CC(C)[C@H](NC(=O)OCc1ccccc1)C(=O)N[C@H](/C=C/C(=O)OC(C)(C)C)CO | > 100 µM (inactive) | > 100 µM (inactive) | 36.7 µM (inactive) | > 100 µM (inactive) | 65.6 µM (inactive) | > 100 µM (inactive) | > 100 µM (inactive) | > 100 µM (inactive) | > 100 µM (inactive) | > 100 µM (inactive) | > 100 µM (inactive) | > 100 µM (inactive) |  | > 100 µM (inactive) | > 100 µM (inactive) | > 100 µM (inactive) |  | > 100 µM (inactive) | > 100 µM (inactive) | 
5 | Cc1ccc(S(=O)(=O)n2c3ccc(Br)cc3c3nc4ccccc4nc32)cc1 | > 100 µM (inactive) | > 100 µM (inactive) | > 100 µM (inactive) | > 100 µM (inactive) | > 100 µM (inactive) | > 100 µM (inactive) | > 100 µM (inactive) | > 100 µM (inactive) | > 100 µM (inactive) | > 100 µM (inactive) | 0.649 µM (active) | > 100 µM (inactive) | > 100 µM (inactive) | > 100 µM (inactive) | > 100 µM (inactive) | > 100 µM (inactive) | > 100 µM (inactive) |  | > 100 µM (inactive) | > 100 µM (inactive)
6 | CC(=O)/C=N/CC(=O)O | > 100 µM (inactive) | > 100 µM (inactive) | > 100 µM (inactive) | > 100 µM (inactive) | > 100 µM (inactive) | > 100 µM (inactive) | > 100 µM (inactive) | > 100 µM (inactive) | > 100 µM (inactive) | > 100 µM (inactive) | > 100 µM (inactive) | > 100 µM (inactive) | > 100 µM (inactive) | > 100 µM (inactive) | > 100 µM (inactive) | > 100 µM (inactive) |  | > 100 µM (inactive) | > 100 µM (inactive) | > 100 µM (inactive)
7 | CC(=O)OCC1OC(n2c(C)c(C(C)=O)c(-c3ccc(Cl)cc3)c(C#N)c2=S)C(OC(C)=O)C(OC(C)=O)C1OC(C)=O (stereo not drawn) | > 100 µM (inactive) | > 100 µM (inactive) | > 100 µM (inactive) | > 100 µM (inactive) | > 100 µM (inactive) |  |  | > 100 µM (inactive) | > 100 µM (inactive) | > 100 µM (inactive) | > 100 µM (inactive) | > 100 µM (inactive) | > 100 µM (inactive) | > 100 µM (inactive) | > 100 µM (inactive) | > 100 µM (inactive) | > 100 µM (inactive) |  | > 100 µM (inactive) | > 100 µM (inactive)
8 | O=C1c2ccccc2-c2cc([N+](=O)[O-])c([N+](=O)[O-])cc21 |  | 1.64 µM (inactive) | 0.748 µM (active) | 1.8 µM (inactive) | 2.25 µM (inactive) | 2.47 µM (inactive) | 2.18 µM (inactive) | 2.43 µM (inactive) | 17.2 µM (inactive) | 2.81 µM (inactive) | 1.05 µM (active) | 1.72 µM (inactive) | 1.56 µM (inactive) | 1.41 µM (inactive) | 1.61 µM (inactive) | 1.65 µM (inactive) | 1.67 µM (inactive) | 2.04 µM (inactive) | 0.861 µM (active) | 2.16 µM (inactive)
9 | OCCN(CO)CO | > 100 µM (inactive) | > 100 µM (inactive) | > 100 µM (inactive) | > 100 µM (inactive) | 91.4 µM (inactive) | > 100 µM (inactive) |  | > 100 µM (inactive) | > 100 µM (inactive) | > 100 µM (inactive) | > 100 µM (inactive) | > 100 µM (inactive) | > 100 µM (inactive) | > 100 µM (inactive) | > 100 µM (inactive) | > 100 µM (inactive) | > 100 µM (inactive) | > 100 µM (inactive) |  | > 100 µM (inactive)
10 | CC1(CC2=C(C(=O)NCCO[Si](C)(C)C(C)(C)C)C3(OCCO3)C2=O)OCCO1 | > 100 µM (inactive) | > 100 µM (inactive) | 59.8 µM (inactive) | > 100 µM (inactive) | > 100 µM (inactive) | > 100 µM (inactive) | > 100 µM (inactive) | > 100 µM (inactive) | > 100 µM (inactive) | > 100 µM (inactive) | 28.4 µM (inactive) | > 100 µM (inactive) | > 100 µM (inactive) | > 100 µM (inactive) | > 100 µM (inactive) | > 100 µM (inactive) | > 100 µM (inactive) | > 100 µM (inactive) | 57.5 µM (inactive) | 
11 | CC(=O)OC12CC(C)C3(O)C4C=C(C)C(=O)[C@@]4(O)CC(CO)=C[C@H]3C1C2(C)C (stereo partly drawn) | > 10 µM (inactive) | > 10 µM (inactive) | > 100 µM (inactive) | > 10 µM (inactive) | > 10 µM (inactive) | 4.7 µM (inactive) | > 10 µM (inactive) | 2.38 µM (inactive) | 0.41 µM (active) | > 10 µM (inactive) | > 10 µM (inactive) | 65.8 µM (inactive) | > 10 µM (inactive) | > 10 µM (inactive) | > 10 µM (inactive) |  | > 10 µM (inactive) | > 10 µM (inactive) | > 10 µM (inactive) | 0.494 µM (active)
12 | Cc1ccc2c(=O)c3c(O)c4c(cc3n(C)c2c1)OC(C)(C)C=C4 | > 10 µM (inactive) | > 10 µM (inactive) | > 10 µM (inactive) | > 10 µM (inactive) | > 10 µM (inactive) | > 10 µM (inactive) | > 10 µM (inactive) | > 10 µM (inactive) | > 10 µM (inactive) | > 10 µM (inactive) | > 10 µM (inactive) | > 10 µM (inactive) | > 10 µM (inactive) | > 10 µM (inactive) | > 10 µM (inactive) | > 10 µM (inactive) |  | > 10 µM (inactive) | > 10 µM (inactive) | > 10 µM (inactive)
13 | N#CCCNCCN(CCN(C(=O)Nc1ccccc1)c1ccccc1)C(=O)Nc1ccccc1 |  | 59.4 µM (inactive) | 41.5 µM (inactive) | > 100 µM (inactive) | 37.1 µM (inactive) |  | 64.6 µM (inactive) | 48.1 µM (inactive) | 51.2 µM (inactive) | 58.3 µM (inactive) | 24.8 µM (inactive) | 40.6 µM (inactive) | > 100 µM (inactive) | 15.7 µM (inactive) |  | 51.8 µM (inactive) | 26.4 µM (inactive) | 67.1 µM (inactive) | 37.6 µM (inactive) | 67 µM (inactive)
14 | CC1=CC(=O)/C(=C/Nc2nc(-c3ccc([N+](=O)[O-])cc3)cs2)C(=O)O1 |  | > 100 µM (inactive) | > 100 µM (inactive) | > 100 µM (inactive) | > 100 µM (inactive) | > 100 µM (inactive) | > 100 µM (inactive) | > 100 µM (inactive) | 80 µM (inactive) | > 100 µM (inactive) | 31.6 µM (inactive) | > 100 µM (inactive) | > 100 µM (inactive) | > 100 µM (inactive) | > 100 µM (inactive) | > 100 µM (inactive) | > 100 µM (inactive) | > 100 µM (inactive) | > 100 µM (inactive) | > 100 µM (inactive)
15 | O=c1[nH]nc(-c2ccccc2)c2[nH]c3c(c12)Cc1ccccc1-3 | 0.914 µM (active) | 6.61 µM (inactive) | > 100 µM (inactive) | 0.378 µM (active) | 4.8 µM (inactive) | 13.8 µM (inactive) | 7.16 µM (inactive) | 21.2 µM (inactive) | 2.35 µM (inactive) | 2.14 µM (inactive) | 0.295 µM (active) | 1.67 µM (inactive) | 3.64 µM (inactive) |  | < 0.0306 µM (active) | 1.97 µM (inactive) | 5.41 µM (inactive) | 6.79 µM (inactive) | 6.11 µM (inactive) | 0.839 µM (active)
